We go through two compounds from PMC5355322, “Enhancement of the bioavailability of a novel anticancer compound (acetyltanshinone IIA) by encapsulation within mPEG-PLGA nanoparticles: a study of formulation optimization, toxicity, and pharmacokinetics” (Oncotarget, 2017).

Like-named read-outs stand apart in the source and are kept apart here.

In one data set the test system is zebrafish larvae. The experiment in a line: Heart rate of zebrafish larvae. The conditions noted are these: 5 μM, 96 hpf; normal fish larvae 160 bpm. Type of data set: in vivo.
Data set [1] relates to ER. The conditions noted are these: ref [23]; cited from earlier work.
Data set [2] is described as follows: Pharmacokinetics in rats after single intravenous administration (RP-HPLC). The conditions noted are these: for half-life: rat, whole blood, 8 mg/kg. Type of data set: in vivo, rat. Here is the method:
The pharmacokinetic parameters of ATA were determined using two-chamber model and calculated using Excel PKsolver. According to the requirements for the selection of pharmacokinetic calculation model, the values of Akaike's information criterion and residual sum of squares (Re) were minimized, while the value of the determinate coefficient (r) was maximized. The mean retention time was calculated by statistical moment analysis.
Free ATA was suspended in a solution of PEG300: Ethanol: Tween 80 (60:25:15, v:v:v). […] At different time points (15 min, 30 min, 1, 2, 3, 4, 5, 6, 8, and 24 h), blood samples (0.3 mL) were collected from the suborbital vein and put into heparinized tubes. The blood samples were centrifuged at 3,000 rpm at 4°C for 10 min to obtain plasma. Then, the samples were pretreated and injected into RP-HPLC for detection. Microsoft Excel PKSolver was used to analyze the pharmacokinetic data. All animal studies were done in accordance with the protocol of ARF SBS NIE A-0146 AZ approved by the Institutional Animal Care and Use Committee, Nanyang Technological University, Singapore.
Before the samples were injected into the chromatograph, they were subjected to protein denaturation and precipitation. Briefly, acetonitrile (700 μL) was added to each 300 μL sample to precipitate the proteins and extract ATA. Samples were vortex mixed for 15 min and then centrifuged for 10 min at 14,000 rpm at 4°C. The deproteinized supernatant was recovered and analyzed immediately by RP-HPLC.
The concentration of ATA in plasma or whole blood was measured by RP-HPLC analysis as described above. The standard stock solution of ATA was added into the plasma or blood at different concentrations and subjected to sample pretreatment. The calibration graphs were based on linear regression analysis of the peak-area of ATA versus the concentration of ATA [32–36]. The extraction recoveries of ATA from rat plasma were determined at the concentrations of 0.0005, 0.01, and 50 μg/mL and from rat blood at the concentrations of 0.1, 5, and 100 μg/mL, using five replicates. The precision and accuracy of the method were examined at three concentrations of samples. The intra-day precisions were evaluated by analyzing five replicate samples in one day. The analysis was performed on five consecutive days for the inter-day precision.

On the set-up of data set [3]: method as in our previous study in rats. As to conditions: rats; ref our previous study in rats; cited from earlier work.
In data set [4] the test system is ER. The conditions noted are these: ref [23]; cited from earlier work. This is another data set of the same source.
The next data set relates to ER+ breast cancer cells. The conditions noted are these: compared with tamoxifen; ref [23]; cited from earlier work.
Another data set relates to GREB1. As to conditions: ref [23]; cited from earlier work.
A further data set can be described thus: Drug release by dialysis. Type of data set: physicochemical. As to conditions: after 22 h, water with 1% SDS, 37°C. The procedure: The release of ATA from ATA NPs was investigated using dialysis and compared with the release of free ATA in solution [38–41]. Free ATA, or ATA NPs containing an equal amount of ATA, was mixed with release medium (6 mL ultra-pure water with 1% SDS) and placed in a dialysis sack (MWCO 12,000, Sigma). The pocket was then immersed in release medium (50 mL) with gentle stirring at 37°C. Samples of medium from outside of the pocket (2 mL) were taken at the designated time intervals for analysis, and an equal volume of fresh release medium was replenished. The amount of released drug was determined by the RP-HPLC method described in the section “Pharmacokinetics of ATA NPs in rats” below. The similarity of release profiles between the free ATA and ATA NPs were evaluated by the similarity factor (f2) shown below: f2=50log {[1+1/n∑t=1n(Rt−Tt)^2]^−0.5×100}
where n is the number of the time points, Rt is the release value of ATA NPs at time t, and Tt is the release value of free ATA.

In data set [5] the test system is MCF-7 breast cancer cells. The data set is described as follows: MTT cell viability assay, MCF-7. Type of data set: cell-based. The conditions noted are these: for reduction of viability of MCF-7 cells: 10 μM and 20 μM; for IC50: Homo sapiens, MCF7. The procedure: (§1) Meanwhile, human umbilical vein endothelial cells (HUVEC) were used to determine the general toxicity of ATA NPs on non-cancerous cells. Cells were treated with free ATA or ATA NPs at six concentrations: 0.625, 1.25, 2.5, 5, 10, and 20 μM for 24, 48, and 72 h. Cell viability was determined by the MTT assay and the experiment was conducted in triplicate.
(§2) The MTT reduction ability was determined as an index of the metabolic viability, in particular mitochondrial function, of the cells. Briefly, MCF-7 cells or HUVEC were seeded in 96-well plates and allowed to grow overnight. Free ATA (dissolved in DMSO, diluted with DMEM), ATA NPs, or blank NPs were added at different concentrations and the cells were incubated for 24, 48, and 72 h. MTT solution (10 μL; 5 mg/mL) was added into each well for 4 h. One hundred microliters of 1% SDS (containing 0.1% concentrated hydrochloric acid) was then added in each well to dissolve the formazan crystals. After 8 h, the absorbance of solubilized MTT formazan products were measured at 595 nm, and the cell viability was calculated from the OD value of the test sample and the vehicle control (untreated cells) using the following equation: cell viability (%) = ODtest sample /ODvehicle control × 100. The data obtained in triplicate from three independent experiments were presented as the mean ± SD.
In general terms: Tetrazolium assays rely on reduction of a dye to a coloured formazan, in cell work by metabolically active cells.

Data set [6] concerns human umbilical vein endothelial cells (HUVEC). The experiment in a line: MTT cell viability assay, HUVEC. Type of data set: cell-based. As to conditions: for IC50: Homo sapiens, HUVEC. Here is the method:
as §1, §2

The mark [7] stands for this setting: rat whole blood, single i.v. 8 mg/kg.
Where [8] appears, read: rat whole blood, single i.v. 8 mg/kg, two-chamber model.

Experimental for zebrafish embryos: (§3) Various concentrations of the free and nanoparticle forms of ATA were added to zebrafish embryos at four hours post fertilization (hpf).
Male and female zebrafish were bred in separate tanks. […] After mating, the selected embryos were collected at 4 hpf and placed in 96-well plates. […] In brief, these embryos were placed in glass petri dishes containing of fresh water (25 mL) with pronase (50 μL; 50 mg/mL) for 4-5 min.
Throughout the experiment, incubation solutions with freshly added ATA were replaced daily. Images of the zebrafish were captured in order to document any morphological changes. […] Twenty zebrafish were used in each experimental group and the zebrafish experiments were conducted at least four times.
Experimental for zebrafish larvae: as §3
The temperature of incubator was maintained at 28.5°C to ensure the optimal development of the embryos. Throughout the experiment, incubation solutions with freshly added ATA were replaced daily. Images of the zebrafish were captured in order to document any morphological changes. The heart rate was also recorded as described previously [44–47]. Twenty zebrafish were used in each experimental group and the zebrafish experiments were conducted at least four times.

One may read the MRT as the average time that molecules of a dose stay in the body. The term AUC(0-inf) denotes total exposure, with the tail of the curve extrapolated. Read a low AUC(0-inf) as low exposure. The IC50 is the concentration that inhibits the measured activity by half. As for `CC(=O)Oc1c(OC(C)=O)c2c(C)coc2c2ccc3c(c12)CCCC3(C)C` [Free ATA, acetyltanshinone IIA], the heartbeats with zebrafish larvae is recorded as 120 bpm. Also, the “Deformity and mortality rate (%) (total)” value with zebrafish embryos (2.5 μM, 96 hpf) was determined as 40%. The “Mortality rate (%)” value in the data set with zebrafish embryos (5 μM, 96 hpf) was found to be 70%; with zebrafish embryos (10 μM, 96 hpf) it was 100%; in the data set with zebrafish embryos (20 μM, 96 hpf), 100%. Also, the “dosages that caused deformity or mortality in zebrafish larvae” value in the data set with zebrafish embryos (96 hpf) is “higher than 1 μM”. Besides, in the data set with zebrafish embryos (zebrafish, in vivo), the “Deformity rate (%)” value is 20%. Also, the “effect on ER protein” value in the data set on ER [1] was “completely abolished the presence of ER”. Moreover, in data set [2] (female, SD, iv, rat whole blood, single i.v. 8 mg/kg, statistical moment analysis, read-out: MRT (mean retention time) (converted)), the MRT was 15.9 min. The total exposure AUC(0-inf) in data set [2] (female, SD, iv, rat whole blood, single i.v. 8 mg/kg, two-chamber model) was 0.514 µM·h. Besides, the AUC(0-t) in data set [2] (female, SD, iv, rat whole blood, single i.v. 8 mg/kg, two-chamber model, read-out: AUC0-24h (converted)) is 0.509 µM·h. Further, in [2] (female, SD, iv, rat whole blood, single i.v. 8 mg/kg, two-chamber model, read-out: C0 (initial concentration)), the C0 came out at 4.06 µM. For the same compound, the half-life in [2] (female, SD, iv, rat whole blood, single i.v. 8 mg/kg, two-chamber model, read-out: t1/2 alpha (distribution half-life)) is 3.55 min; in [2] (female, SD, iv, rat whole blood, single i.v. 8 mg/kg, two-chamber model, read-out: t1/2 beta (elimination half-life)), 22.8 min. Also, in data set [2] (rat plasma, i.v. 8 mg/kg, both forms), the “ATA concentration in plasma” value is reported as “too low to be detected after 15 min”. For the same compound, the “time until the blood concentration of ATA was reduced to 0.5 μM” value in data set [2] (rat whole blood, i.v. 8 mg/kg) worked out at 12 min. Further, in [2] (rat whole blood, i.v. 8 mg/kg, 240-min test), the “decline of blood ATA concentration” value was “declined rapidly, and reached a very low level after 30 min”. Further, in data set [2] (setting [7]), the “AUMC (area under the first moment curve)” value came out at 490.97 μM·min^2. The “Vss (steady state volume of distribution)” value in data set [2] (setting [7]) stood at 4.12 mg/kg/µM. The “CL2 (clearance between central and peripheral compartment)” value in data set [2] (setting [8]) is given as 0.10 (mg/kg)/μM/min. Further, the “CL (clearance)” value in data set [2] (setting [8]) was 0.26 (mg/kg)/μM/min. The “V2 (compartment volume of distribution)” value in [2] (setting [8]) was 2.15 (mg/kg)/μM. In addition, in data set [2] (setting [8]), the “V (apparent volume of distribution)” value is on record as 1.97 (mg/kg)/μM. Besides, the “k10 (elimination rate)” value in data set [2] (setting [8]) was 0.13 min⁻¹. The “k12 (inter-compartment rate)” value in data set [2] (setting [8]) came out at 0.05 min⁻¹. In addition, the “k21 (intra-compartment rate)” value in [2] (setting [8]) worked out at 0.05 min⁻¹. The bioavailability entry in [3] is “low bioavailability”. In addition, the “expression of ER at the mRNA level” value in the data set on ER [4] was “reduced the expression of ER at the mRNA level”. The “growth inhibition of ER+ breast cancer cells” value in the data set with ER+ breast cancer cells is listed as “stronger growth inhibition of ER+ breast cancer cells than tamoxifen”. For the same compound, the “transcription of ER-responsive gene GREB1” value with GREB1 is “reduced the transcription”. Also, the ATA released in “Drug release by dialysis” is given as 50%. In addition, the “reduction of viability of MCF-7 cells” value in data set [5] (48 and 72 h) is roughly 100%; in data set [5] (24 h) it was “approximately 90%”. In addition, the IC50 worked out at 2620 nM in data set [5] (MCF-7, 24 h); 1720 nM in data set [5] (MCF-7, 48 h); 1060 nM in data set [5] (MCF-7, 72 h); 19300 nM in data set [6] (24 h); 6670 nM in [6] (48 h); 2050 nM in data set [6] (72 h). In addition, the “24 h-IC50 in HUVEC cells relative to MCF-7 cells” value in [6] (24 h, HUVEC vs MCF-7) was 7.4 fold.
As to `C[C@]12CC[C@@H]3c4ccc(O)cc4C[C@@H](CCCCCCCCC[S+]([O-])CCCC(F)(F)C(F)(F)F)[C@H]3[C@@H]1CC[C@@H]2O` (some centres unmarked) [fulvestrant, reference compound], the “effect on ER protein” value with ER [1] is listed as “only reduced the protein level”.
